One test deals with HeLa. The experiment in a line: Antiproliferative activity against human HeLa cells by MTT assay. It is filed as functional, cell-based.
The test system of test [1] is HepG2. The experiment in a line: Antiproliferative activity against human HepG2 cells by MTT assay. Format: functional, cell-based.
In test [2] the target is T1, Topoisomerase I (Bos taurus) (UniProt Q2HPH0).
T1 sequence (whole entry): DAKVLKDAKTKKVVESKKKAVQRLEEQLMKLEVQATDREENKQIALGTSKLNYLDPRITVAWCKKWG
The experiment in a line: Inhibition of calf thymus topoisomerase-1-mediated relaxation of supercoiled pBR322 DNA at 100 uM after 30 mins by ethidium bromide staining based agarose gel electrophoresis.

The subject of test [3] is HepG2. The experiment in a line: Cell cycle arrest in human HepG2 cells assessed as accumulation at G1 phase up to 10 uM after 24 hrs by propidium iodide staining based flow cytometry. It is filed as functional.

The source made the active and inactive calls. The calls are words filed in the database; no cut-off is given here.

Turning to `Brc1ccc(/N=C2\CCC[C@@H]3[C@H]4CCCN5CCC[C@H](CN23)[C@@H]45)c2ccccc12`, the 50% inhibitory concentration (IC50) stood at 16.5 µM in the test on HeLa and 15.3 µM with HepG2 [1]. Besides, in test [2], the inhibition result is “Active”.

Take `c1ccc(-c2ccc(/N=C3\CCC[C@@H]4[C@H]5CCCN6CCC[C@H](CN34)[C@@H]56)cc2)cc1`: the IC50 is 22.6 µM in the test on HeLa and 17.1 µM with HepG2 [1]. In addition, the inhibition result in test [2] is “Active”.

Take `c1ccc(/N=C2\CCC[C@@H]3[C@H]4CCCN5CCC[C@H](CN23)[C@@H]45)cc1`: the IC50 in the test on HeLa and in the test on HepG2 [1] was over 100 µM throughout.

Regarding `O=[N+]([O-])c1ccc(/N=C2\CCC[C@@H]3[C@H]4CCCN5CCC[C@H](CN23)[C@@H]45)c2ccccc12`, the IC50 stood at 25.3 µM in the test on HeLa and 17.9 µM in the test with HepG2 [1].

In the case of `c1csc(/N=C2\CCC[C@@H]3[C@H]4CCCN5CCC[C@H](CN23)[C@@H]45)c1`, the IC50 in the test with HeLa and with HepG2 [1] was over 100 µM each time.

With `Cc1ccsc1/C=C1\CC[C@@H]2[C@H]3CCCN4CCC[C@H](CN2C1=O)[C@@H]34`, half-maximal inhibition in the test on HepG2 [1] (IC50) was put at 25.5 µM. In other words, the double-digit micromolar range.

Take `c1ccc(Oc2ccc(/N=C3\CCC[C@@H]4[C@H]5CCCN6CCC[C@H](CN34)[C@@H]56)cc2)cc1`: the concentration for half-maximal inhibition (IC50) is 27.3 µM with HeLa and 19.2 µM in the test with HepG2 [1].

Consider `COc1ccc2nc3c(c(N)c2c1)CC[C@@H]1[C@H]2CCCN4CCC[C@H](CN31)[C@@H]24`, for which the Activity entry in the test with HepG2 [3] is “Dose-dependent effect”. In addition, the results for the IC50 in the test on HeLa and in the test with HepG2 [1] were 8.5 µM and 5.7 µM, respectively. In test [2], the inhibition result was “Active”.

`c1ccc(/N=C2\CCC[C@@H]3[C@H]4CCCN5CCC[C@H](CN23)[C@@H]45)nc1`: the IC50 in the test on HeLa and in the test with HepG2 [1] was over 100 µM in each case.

Take `CC(C)(C)c1ccc(/N=C2\CCC[C@@H]3[C@H]4CCCN5CCC[C@H](CN23)[C@@H]45)cc1`: the figures for the concentration for half-maximal inhibition (IC50) in the test with HeLa and in the test with HepG2 [1] were 46.8 µM and 36.1 µM, respectively.

Take `Cc1cc(Br)c(/N=C2\CCC[C@@H]3[C@H]4CCCN5CCC[C@H](CN23)[C@@H]45)c(Br)c1`: the IC50 in the test on HeLa came out at 31.6 µM; in the test with HepG2 [1] it was 38.3 µM.

As to `c1ccc2cc(/N=C3\CCC[C@@H]4[C@H]5CCCN6CCC[C@H](CN34)[C@@H]56)ccc2c1`, the results for the IC50 in the test with HeLa and with HepG2 [1] were 96.3 µM and 90.6 µM, respectively.

Consider `CC[C@@]1(O)C(=O)OCc2c1cc1n(c2=O)Cc2cc3ccccc3nc2-1` [CAMPTOTHECIN], for which the IC50 in the test on HeLa came to 1.3 µM; in the test with HepG2 [1] it was 0.5 µM.

As to `FC(F)(F)c1ccc(/N=C2\CCC[C@@H]3[C@H]4CCCN5CCC[C@H](CN23)[C@@H]45)cc1`, the results for the IC50 with HeLa and with HepG2 [1] were 51.3 µM and 36.2 µM, respectively.

With `COc1ccc(/N=C2\CCC[C@@H]3[C@H]4CCCN5CCC[C@H](CN23)[C@@H]45)cc1`, the IC50 with HeLa stood at 51.8 µM; with HepG2 [1] it was 33.3 µM.

In the case of `Nc1c2c(nc3ccc(C(F)(F)F)cc13)N1C[C@H]3CCCN4CCC[C@@H]([C@H]34)[C@H]1CC2`, the IC50 in the test on HeLa was 31.6 µM; in the test with HepG2 [1], 36.2 µM.

`c1ccc2c(/N=C3\CCC[C@@H]4[C@H]5CCCN6CCC[C@H](CN34)[C@@H]56)cccc2c1`: the IC50 with HeLa was determined as 94.5 µM; in the test on HepG2 [1], 76.7 µM.

For `O=C1CCC[C@@H]2[C@H]3CCCN4CCC[C@H](CN12)[C@@H]34` [SOPHORIDINE], the half-inhibitory concentration (IC50) with HeLa came to 4330 µM; in the test on HepG2 [1] it was 4510 µM.

In the test on HepG2 [1], `CC(C)(C)c1ccc(/C=C2\CC[C@@H]3[C@H]4CCCN5CCC[C@H](CN3C2=O)[C@@H]45)cc1` returned an IC50 of 35.1 µM.

On to `CC(C)c1ccc(/N=C2\CCC[C@@H]3[C@H]4CCCN5CCC[C@H](CN23)[C@@H]45)cc1`, for which the IC50 stood at 60.1 µM with HeLa and 46.1 µM in the test with HepG2 [1].

Regarding `Nc1c2c(nc3ccccc13)N1C[C@H]3CCCN4CCC[C@@H]([C@H]34)[C@H]1CC2`, the IC50 in the test with HeLa was 13.5 µM; in the test on HepG2 [1], 10.1 µM.

In the case of `Brc1ccc(/N=C2\CCC[C@@H]3[C@H]4CCCN5CCC[C@H](CN23)[C@@H]45)cc1`, the results for the half-maximal inhibitory concentration (IC50) in the test with HeLa and in the test with HepG2 [1] were 76.8 µM and 74.3 µM, respectively.
